Measured values taken from a melting point compilation (Tetko et al.; mined from patent text by program, amines drawn as free bases though some values may be those of a salt).

SMILES	melting point [°C]
CCCn1cnc2c1c1n[nH]c(=O)n1c(=O)n2CCC	217 to 218
CCC1=Cc2cc3c(cc2C(c2ccc([N+](=O)[O-])cc2)=NN1C(C)=O)OCO3	132 to 134
COC(=O)C1(CCCCCCCCCCCCC2(C(=O)NS(C)(=O)=O)CC2)CC1	53.5 to 54.5
Cc1c(Cl)c(Oc2ncc(C(F)(F)F)cc2Cl)nn1C(=O)NC1CCCCC1	94 to 96
COC(=O)CCC(=O)c1ccc(NS(C)(=O)=O)cc1	181 to 183
COc1ccc(O)c2c(C)c(C)[nH]c12	164
CC(CCC(=O)O)C1CCC2C3C(O)CC4CC(NC(=O)CNC(=O)OC(C)(C)C)CCC4(C)C3CC(O)C12C (stereo not drawn)	150 to 155
CCOC(=O)C1=C(CO)NC(CO)=C(C(=O)OCC)C1c1ccccc1Cl	190 to 191
Cc1ccc2nc3c(nc2c1)SC(C#N)=C(C#N)S3	213 to 215
CC1(C)Oc2ccc(C#N)cc2[C@@H](Nc2cc(Cl)ncn2)[C@@H]1O (relative stereo)	204 to 208
CCC(C)c1ccc(NC(=O)c2sccc2S(=O)(=O)Nc2onc(C)c2Br)cc1 (stereo not drawn)	205 to 208
O=[N+]([O-])c1cccc(/C=C/c2nc(C3CCC3)cs2)c1	78 to 80
COc1ccc(CN2C(=O)[C@H](CO)[C@H]2S(=O)(=O)C(C)(C)C)c(OC)c1	124 to 125
CCC(CC)c1nn(-c2ncc(C(F)(F)F)cn2)cc1CCCOc1c(CC(=O)O)cccc1OC	163 to 164
COC(=O)C1=C(C)NC(C)=C(C(=O)OC)C1C	155 to 156
CC(C)(C)c1ccc(C(=O)NP(N)(N)=O)cc1	232
Cc1cc2nccn2nc1OCC(C)(C)CCCCS(N)(=O)=O	169 to 170
NC(N)=NC(=O)Cn1cccc1	214
Cc1cccc2nc(NC(=N)N)[nH]c12	> 260
CCCc1c(OCC(C)CC(=O)NCCCCc2cccnc2)ccc(C(C)=O)c1O (stereo not drawn)	58 to 60
O=C(O)CCC(=O)c1ccc(NC(=O)C2CC2)cc1	229 to 230
CC(C)(C)CCN1C(=O)C(NC(=O)Oc2ccccc2)C(=O)N(c2ccccc2)c2ccccc21 (stereo not drawn)	170 to 172

SMILES	melting point [°C]
ClC(Cl)=CCOc1cc(Cl)c(OCc2ccc(Cl)nc2)c(Cl)c1	93.3
COC(=O)c1c(C(F)F)nc(C(F)(F)F)c(C(=O)OC)c1CC(C)C	36 to 37
COc1ccc(Br)c(C=O)c1O	102 to 103
COC(=O)C1CC(O)CN1C(=O)c1cc(OC)c(OC)c(OC)c1 (stereo not drawn)	126
CC(=O)Oc1cc2c(cc1C=O)C1CCC3(C)C(O)CCC3C1CC2 (stereo not drawn)	73 to 75
N=c1cc(NCCCCc2c[nH]cn2)ccs1	209 to 211
O=C(O)c1ccc2[nH]c(=O)n(CCCCN3CC=C(c4ccccc4)CC3)c(=O)c2c1	237
COC(=O)c1cc(C(=O)NCCN(C)C)c2cc(Cc3ccc(F)cc3)cnc2c1O	115 to 116
O=C1CC2(SCCS2)C(=O)N1	112 to 115
COc1ccc2c(c1)Cc1nnc(S(C)=O)n1C=C2 (stereo not drawn)	176 to 177
C#CCNC(=S)Cc1ccccn1	62 to 63
CCCc1cc(CCC)n2nc(C)c(C#N)c2n1	73 to 74
Cc1nc2[nH]c(=O)[nH]c2cc1-c1ccc(NC(=O)C(F)(F)F)cc1	> 300
CCOc1c(C)ccc2c1c1cc(Br)ccc1n2C(=O)OC(C)(C)C	137
Cc1nc2ccc(F)cc2c(=O)n1C1CCC(=O)NC1=O (stereo not drawn)	273 to 275
Cc1cc(C)c2c(c1)S(=O)(=O)NCN2	160 to 165
COC(=O)c1cccc(C(=O)N(C)C)n1	90 to 92
CNC1C=Cc2cc(O)ccc2CC1 (stereo not drawn)	152
CCC(=O)c1ccc(OC(C)(C)C(=O)OC)cc1	47 to 49
O=C1NCN(c2ccccc2)C12CCN(C[C@@H]1CCc3ccc(Cl)cc3[C@H]1O)CC2 (relative stereo)	248 to 249
C=CCOc1ccc(C[C@H](NC(=O)OC(C)(C)C)C(=O)N[C@H](C(=O)N[C@@H](CC=C)C(=O)OC)C(C)C)cc1	106 to 108

Results, then the compound that gave them:

melting point [°C]	SMILES
161 to 163	Cc1ccc(NC(=O)C(N)c2ccc3c(c2)C(C)(C)CCC3(C)C)cc1 (stereo not drawn)
95	CN1CCC(OC2c3ccccc3CCn3c2nc(-c2ccc(C(=O)OC(C)(C)C)cc2)c3C#N)CC1 (stereo not drawn)
228 to 230	O=C(c1cc(-c2cccc(Cl)c2)c(=O)n2c1-c1c(Cl)cccc1C2)N1CCC[C@@H]1CO
62 to 64	CON=C(c1ccccc1)c1ccc2c(c1)C(C)(C)CCN2CCOc1ccc(CC(OCC(F)(F)F)C(=O)O)cc1 (stereo not drawn)
241 to 243	O=C(O)c1cccc(C(=O)O)c1Nc1ccc(I)cc1
185	COc1cccc(Cl)c1-c1cc2c(c3c1C(=O)NC3=O)c1cc(O)ccc1n2CCN1CCOCC1
117 to 118	Oc1ccc(-c2nn(CC3CCCCC3)c3c(C(F)(F)F)cccc23)c(O)c1
229 to 231	O=C(O)Cc1c(-c2ccccc2)nn(C2CCCCC2)c1-c1ccccc1
129 to 132	CC(C)(c1ccccc1)N1CCC(=O)C(c2ccccc2)C1=O (stereo not drawn)
283 to 286	Cc1ccc(N2C(=O)C(O)=C(C(=O)c3ccc(C4CCCCC4)cc3)C2c2ccc(OC(F)(F)F)cc2)nn1 (stereo not drawn)
190 to 192	O=C1N(N2CCOCC2)c2ccccc2C1(Cc1ccncc1)c1ccccc1 (stereo not drawn)
104 to 106	O=[N+]([O-])c1ccc2c(c1)N(C1CCN(CCc3ccc(F)cc3)CC1)CC2
200 to 201	CSc1nnc(-c2ccc3ncn(-c4ccc(OC(F)(F)F)cc4)c3c2)o1
128 to 130	O=C(N[C@H](CN1CCC(OC2c3ccccc3CCc3ccccc32)CC1)C(=O)O)OCc1ccccc1
95 to 105	COCOc1ccc(C2(c3cccc(-c4cccnc4F)c3)N=C(N)N3CCCN=C32)cc1 (stereo not drawn)
172	Cn1cc(-c2ccccc2)c(=O)c(-c2cccc(Br)c2)c1
124 to 125	COc1ccc(-n2cc(CCCOc3c(CC(=O)O)cccc3OC)c(C(C)C)n2)nn1
241 to 242	CCCc1nc2c(N)nc3ccccc3c2n1CC1(O)CCN(C)CC1
195	O=C(NC(Cc1ccc(OCc2ccc(Cl)cc2)cc1)C(=O)O)c1cc2ccc(-c3ccc(Cl)cc3)cc2o1 (stereo not drawn)
75 to 77	COc1ccc(C(=C(c2ccc(OC)cc2)C(F)(F)F)c2ccc(F)cc2)cc1
160	CC(C)C[C@H](NC(=O)NCc1ccccc1)C(=O)N[C@@H](C(C)C)[C@@H](O)c1c(-c2ccccc2)c1=O
148 to 150	COC(=O)c1c(Cl)cc(Cl)cc1NC(=O)CSc1ccc(NC(=S)Nc2cccc(Cl)c2)cc1
204 to 208	CCCCn1nc(C)c(C(N)=O)c1Cc1ccc(-c2ccccc2-c2nnn[nH]2)cc1
260 to 262	N=C(Nc1cccc(NC(=O)/C=C/c2cccc(Cl)c2)c1)c1ccccc1
264 to 267	CN1CCN(c2cccc(-c3ccc(C#N)c(=O)[nH]3)c2)CC1
227 to 229	O=C1CCC(N2C(=O)c3cccc(CNC(=O)c4ccccc4)c3C2=O)C(=O)N1 (stereo not drawn)
306 to 308	COC1=NC(=O)c2c1cc1ccc3c(c1c2-c1ccc2c(c1)OCO2)OCO3
224 to 225	Nc1nc2c(c(Nc3cccc(Cl)c3)n1)-c1ccccc1C2

melting point [°C]	SMILES
68 to 75	CCn1c(=O)n(Cc2ccccc2)c(=O)c2c(N3CCN(C)CC3)cc(Cl)cc21
188 to 190	COc1ccc(Sc2nn(-c3ccc(OC)cc3)c(=O)c(C#N)c2C)cc1
89 to 90	CCC1(Cc2ccccc2)CCNC1=O (stereo not drawn)
100 to 104	Cc1ccc(Cc2cnc(NCCCN(Cc3cccc(Cl)c3)c3ccccn3)[nH]c2=O)cn1
32 to 32.5	COc1cc(N)c2nccc(C)c2c1OCCCCCCCCCc1ccccc1
69 to 70	COC(=O)c1cnc(C(=O)OC)c2ccccc12
104	COc1cc(C)c2c(c1)[C@@H]1c3ccccc3N[C@@H]1C2 (relative stereo)
74	c1ccc(COc2cccc(OCc3ccccc3)n2)cc1
194 to 196	Cc1c(CN2CCc3c(c4ccccc4n3C)C2=O)ncn1S(=O)(=O)N(C)C
104 to 105	Cc1nc(CC2CCN(c3ccc(F)cc3)CC2)nc(C(=O)NCC(=O)O)c1O
202	O=C1c2cccc([N+](=O)[O-])c2C(=O)N1c1ccc(O)cc1
142 to 145	COc1ccc2c(c1)CCC1C3CC4OCCOC4C3(C)CC(=O)C21C (stereo not drawn)
243 to 247	N#Cc1ccc(-c2ccc(S(=O)(=O)CC(CSc3ccccc3)C(=O)O)cc2)cc1 (stereo not drawn)
219 to 221	N#Cc1ccc2c(c1)S(=O)c1ccccc1CC2=O (stereo not drawn)
133	CC(C)c1cn2ccccc2c1S(=O)(=O)c1ccc(OCCCBr)cc1
112 to 114	CN(Cc1coc(C=Cc2ccc(C(F)(F)F)cc2)n1)c1ccc(CCCCn2ccnn2)cc1
133 to 136	CS(=O)(=O)c1ccc(-n2nc(C=O)cc2-c2ccccc2)cc1
207	CC1(C)Oc2ccncc2[C@@H](Oc2ccccn2)[C@@H]1O (relative stereo)
214 to 217	Cc1cnn(-c2ncc(C(=O)N3Cc4cccn4Cc4ccccc43)c(C(F)(F)F)n2)c1
153 to 155	COc1cc(OCc2ccccn2)ccc1/C=C/c1cc(/C=C/c2ccc3c(c2)OCCO3)n[nH]1
97 to 99	O=Cc1cccnc1Oc1ccc(Cl)c(Cl)c1
130 to 132	CC(C)NC(=O)OC1SCN(c2ccccc2)C1=O (stereo not drawn)
150 to 152	O=C(c1cccs1)c1cc(Cc2ccccc2)c(O)c2ccccc12
87 to 89	O=C(Cn1ccnc1)c1cccs1
206 to 208	O=C(O)c1cc(=O)c(-c2ccc(OCc3ccccc3)c(OCc3ccccc3)c2)co1
195 to 200	O=C1N(c2ccc(F)cc2)c2ccccc2C1(O)c1cc2c(cc1O)OCCO2 (stereo not drawn)
158 to 161	C(=NNc1nc(OCCc2ccccn2)nc(N2CCOCC2)n1)c1c[nH]c2ccccc12
